# Experimental data: patent US20240101544A1, “INHIBITORS OF QPCTL AND QPCT” (priority 2022, published 2024)
# Tests used:
# QPCT (rhQPCT) = QPCT (rhQPCT) (Homo sapiens (Human), UniProt Q16769); experiment: QPCT Enzymatic Activity Assay (coupled-enzyme fluorescent assay, H-Gln-AMC substrate); assay type: biochemical; settings: rhQPCT 10-12 nM, 10 μM H-Gln-AMC; read-out: QPCT Inhibition IC50
# Procedure, shortened: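 Coupled assay: recombinant human QPCT converts H-Gln-AMC (10 μM final) to pyroglutamyl-AMC, 60 min at 37 °C, stopped by boiling; PGPEP-1 then releases AMC.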
# QPCTL [1] = target: T1, QPCTL (Homo sapiens (Human), UniProt Q9NXS2); experiment: Inhibition of Cellular QPCTL Activity - Imaging Assay, CC2C6 anti-CD47 staining of DLD-1 cells; assay type: cell-based; settings: 72 hours, CC2C6 anti-CD47 high-content imaging
# Experimental: Inhibition of Cellular QPCTL Activity—Imaging Assay
# The cells were incubated for 72 hours at 37° C. and 5% CO2. […] After primary antibody staining, the cells were fixed with 4% paraformaldehyde in the incubation buffer for 15 minutes at room temperature. […] Cells were analyzed on a ImageXpress Pico Automated Cell Imaging System (Molecular Devices) using 10× objective (3×3 fields).
# Target sequence in this assay (Q9NXS2 whole entry): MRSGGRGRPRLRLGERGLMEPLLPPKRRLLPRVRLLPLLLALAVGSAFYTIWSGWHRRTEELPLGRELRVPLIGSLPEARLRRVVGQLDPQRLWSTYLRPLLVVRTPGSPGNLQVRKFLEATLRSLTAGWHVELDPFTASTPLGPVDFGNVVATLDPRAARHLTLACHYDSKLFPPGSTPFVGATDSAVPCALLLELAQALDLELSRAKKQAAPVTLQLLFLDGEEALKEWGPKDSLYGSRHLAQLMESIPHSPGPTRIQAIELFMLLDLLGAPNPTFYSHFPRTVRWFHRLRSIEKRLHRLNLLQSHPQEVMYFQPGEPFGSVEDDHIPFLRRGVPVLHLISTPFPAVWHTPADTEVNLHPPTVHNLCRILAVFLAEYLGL
# QPCTL [2] = target: T1, QPCTL; experiment: QPCTL Enzymatic Activity Assay (coupled-enzyme fluorescent assay, H-Gln-AMC substrate); assay type: biochemical; settings: recombinant truncated human QPCTL 10-12 nM, 10 μM H-Gln-AMC; read-out: QPCTL Inhibition IC50
# Target sequence in this assay (Q9NXS2 53-382): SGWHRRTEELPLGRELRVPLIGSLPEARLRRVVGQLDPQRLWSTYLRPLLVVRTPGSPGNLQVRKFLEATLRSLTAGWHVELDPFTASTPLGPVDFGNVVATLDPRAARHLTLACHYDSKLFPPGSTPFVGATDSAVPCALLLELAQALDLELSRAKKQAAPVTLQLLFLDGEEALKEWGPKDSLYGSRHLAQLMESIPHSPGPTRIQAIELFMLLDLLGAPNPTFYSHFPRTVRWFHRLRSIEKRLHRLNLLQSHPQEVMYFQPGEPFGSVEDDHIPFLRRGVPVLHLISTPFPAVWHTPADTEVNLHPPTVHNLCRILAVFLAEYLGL
# Sequence of QPCT (rhQPCT) (Q16769 29-361): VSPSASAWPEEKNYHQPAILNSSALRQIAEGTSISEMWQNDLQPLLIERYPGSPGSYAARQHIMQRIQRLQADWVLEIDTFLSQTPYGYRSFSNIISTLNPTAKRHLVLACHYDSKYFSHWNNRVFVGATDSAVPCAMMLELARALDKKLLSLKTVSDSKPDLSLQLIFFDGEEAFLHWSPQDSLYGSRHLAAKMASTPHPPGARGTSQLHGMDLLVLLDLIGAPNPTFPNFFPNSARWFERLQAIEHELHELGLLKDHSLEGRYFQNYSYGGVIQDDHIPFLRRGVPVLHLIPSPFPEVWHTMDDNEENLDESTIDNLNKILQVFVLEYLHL
SMILES,IC50 (QPCT (rhQPCT)) [µM],IC50 (QPCTL [1]) [µM],IC50 (QPCTL [2]) [µM]
"Cn1cnnc1C1CCN(c2c(-c3ccc(F)nc3)ccc(-c3cn[nH]c3)c2C#N)CC1 [Example 73, 3-(6-fluoropyridin-3-yl)-2-(4-(4-methyl-4H-1,2,4-triazol-3-yl)piperidin-1-yl)-6-(1H-pyrazol-4-yl)benzonitrile]",< 0.1,< 0.1,< 0.1
"Cn1cnnc1C1CCN(c2c(C#N)cc(C#N)cc2-c2ccc(F)nc2)CC1 [Example 100, 5-(6-fluoropyridin-3-yl)-4-(4-(4-methyl-4H-1,2,4-triazol-3-yl)piperidin-1-yl)isophthalonitrile]",< 0.1,< 0.1,< 0.1
"Cn1cnnc1C1CCN(c2c(C#N)cc(S(C)(=O)=O)cc2-c2ccc(F)nc2)CC1 [Example 101, 3-(6-fluoropyridin-3-yl)-2-(4-(4-methyl-4H-1,2,4-triazol-3-yl)piperidin-1-yl)-5-(methylsulfonyl)benzonitrile]",< 0.1,1 to 10,< 0.1
"Cn1cnnc1C1CCN(c2c(-c3ccc(F)nc3)ccc(C3COC3)c2C#N)CC1 [Example 108, 3-(6-fluoropyridin-3-yl)-2-(4-(4-methyl-4H-1,2,4-triazol-3-yl)piperidin-1-yl)-6-(oxetan-3-yl)benzonitrile]",< 0.1,< 0.1,< 0.1
"Cn1cnnc1C1CCN(c2c(C#N)cccc2-c2ccc(F)cc2)CC1 [Example 96, 4′-fluoro-2-(4-(4-methyl-4H-1,2,4-triazol-3-yl)piperidin-1-yl)-[1,1′-biphenyl]-3-carbonitrile]",< 0.1,1 to 10,< 0.1
"Cn1ccc(-c2ccc(-c3ccc(F)nc3)c(N3CCC(c4nncn4C)CC3)c2C#N)n1 [Example 43, 3-(6-fluoropyridin-3-yl)-6-(1-methyl-1H-pyrazol-3-yl)-2-(4-(4-methyl-4H-1,2,4-triazol-3-yl)piperidin-1-yl)benzonitrile]",< 0.1,< 0.1,< 0.1
"Cn1cnnc1C1CCN(c2c(-c3ccc(F)nc3)ccc(N)c2C#N)CC1 [Example 78, 6-amino-3-(6-fluoropyridin-3-yl)-2-(4-(4-methyl-4H-1,2,4-triazol-3-yl)piperidin-1-yl)benzonitrile]",< 0.1,< 0.1,< 0.1
"Cn1cnnc1C1CCN(c2c(-c3ccc(F)nc3)ccc(OC3CCOC3)c2C#N)CC1 (single isomer, unassigned) [Example 88, 3-(6-fluoropyridin-3-yl)-2-(4-(4-methyl-4H-1,2,4-triazol-3-yl)piperidin-1-yl)-6-((tetrahydrofuran-3-yl)oxy)benzonitrile]",< 0.1,< 0.1,< 0.1
"Cn1cnnc1C1CCN(c2c(C#N)cccc2-c2cncc(Cl)c2)CC1 [Example 115, 3-(5-chloropyridin-3-yl)-2-(4-(4-methyl-4H-1,2,4-triazol-3-yl)piperidin-1-yl)benzonitrile]",< 0.1,0.1 to 1,< 0.1
"CNCCN(C)c1ccc(-c2ccc(F)nc2)c(N2CCC(c3nncn3C)CC2)c1C#N [Example 83, 3-(6-fluoropyridin-3-yl)-6-(methyl(2-(methylamino)ethyl)amino)-2-(4-(4-methyl-4H-1,2,4-triazol-3-yl)piperidin-1-yl)benzonitrile]",< 0.1,1 to 10,< 0.1
"Cn1cnnc1C1CCN(c2c(-c3ccc(F)nc3)ccnc2C#N)CC1 [Example 132, 6-fluoro-3′-(4-(4-methyl-4H-1,2,4-triazol-3-yl)piperidin-1-yl)-[3,4′-bipyridine]-2′-carbonitrile]",< 0.1,< 0.1,< 0.1
"Cn1cnnc1C1CCN(c2c(-c3ccc(F)nc3)ccc(-c3cnn(C4CCNCC4)c3)c2C#N)CC1 [Example 42, 3-(6-fluoropyridin-3-yl)-2-(4-(4-methyl-4H-1,2,4-triazol-3-yl)piperidin-1-yl)-6-(1-(piperidin-4-yl)-1H-pyrazol-4-yl)benzonitrile]",< 0.1,0.1 to 1,< 0.1
"CN1CCC(Oc2ccc(-c3ccc(F)nc3)c(N3CCC(c4nncn4C)CC3)c2C#N)C1 (single isomer, unassigned) [Example 91, 3-(6-fluoropyridin-3-yl)-2-(4-(4-methyl-4H-1,2,4-triazol-3-yl)piperidin-1-yl)-6-((1-methylpyrrolidin-3-yl)oxy)benzonitrile]",< 0.1,0.1 to 1,< 0.1
"COc1ccc(-c2cnc3nccn3c2)c(N2CCC(c3nncn3C)CC2)c1C#N [Example 94, 3-(imidazo[1,2-a]pyrimidin-6-yl)-6-methoxy-2-(4-(4-methyl-4H-1,2,4-triazol-3-yl)piperidin-1-yl)benzonitrile]",< 0.1,1 to 10,< 0.1
"Cc1cc(-c2ccc(OCCN(C)C)c(C#N)c2N2CCC(c3nncn3C)CC2)cnn1 [Example 62, 6-(2-(dimethylamino)ethoxy)-2-(4-(4-methyl-4H-1,2,4-triazol-3-yl)piperidin-1-yl)-3-(6-methylpyridazin-4-yl)benzonitrile]",0.1 to 1,> 10,< 0.1
"Cn1cnnc1C1CCN(c2c(-c3ccc(F)nc3)ccc(-c3ccn(C4CC4)n3)c2C#N)CC1 [Example 98, 6-(1-cyclopropyl-1H-pyrazol-3-yl)-3-(6-fluoropyridin-3-yl)-2-(4-(4-methyl-4H-1,2,4-triazol-3-yl)piperidin-1-yl)benzonitrile]",< 0.1,< 0.1,< 0.1
"Cn1cnnc1C1CCN(c2c(-c3ccc(F)nc3)ccc(-c3ccnc(N)c3)c2C#N)CC1 [Example 44, 6-(2-aminopyridin-4-yl)-3-(6-fluoropyridin-3-yl)-2-(4-(4-methyl-4H-1,2,4-triazol-3-yl)piperidin-1-yl)benzonitrile]",< 0.1,< 0.1,< 0.1
"Cn1cnnc1C1CCN(c2c(C#N)cccc2-c2cnc3nccn3c2)CC1 [Example 93, 3-(imidazo[1,2-a]pyrimidin-6-yl)-2-(4-(4-methyl-4H-1,2,4-triazol-3-yl)piperidin-1-yl)benzonitrile]",< 0.1,0.1 to 1,< 0.1
"Cn1cnnc1C1CCN(c2c(-c3ccc(F)nc3)ccc(F)c2C#N)CC1 [Example 71, 6-fluoro-3-(6-fluoropyridin-3-yl)-2-(4-(4-methyl-4H-1,2,4-triazol-3-yl)piperidin-1-yl)benzonitrile]",< 0.1,< 0.1,< 0.1
"CC(=O)c1ccc(-c2ccc(F)nc2)c(N2CCC(c3nncn3C)CC2)c1C#N [Example 97, 6-acetyl-3-(6-fluoropyridin-3-yl)-2-(4-(4-methyl-4H-1,2,4-triazol-3-yl)piperidin-1-yl)benzonitrile]",< 0.1,< 0.1,< 0.1
"Cc1cc(-c2cccc(C#N)c2N2CCC(c3nncn3C)CC2)cnc1F [Example 47, 3-(6-fluoro-5-methylpyridin-3-yl)-2-(4-(4-methyl-4H-1,2,4-triazol-3-yl)piperidin-1-yl)benzonitrile]",< 0.1,< 0.1,< 0.1
"Cn1cnnc1C1CCN(c2c(C#N)cccc2-c2ccc3c(c2)COB3O)CC1 [Example 123, 3-(1-hydroxy-1,3-dihydrobenzo[c][1,2]oxaborol-5-yl)-2-(4-(4-methyl-4H-1,2,4-triazol-3-yl)piperidin-1-yl)benzonitrile]",< 0.1,1 to 10,< 0.1
"Cn1cnnc1C1CCN(c2c(-c3ccc(F)nc3)ccc(-c3cnn(C4CC4)c3)c2C#N)CC1 [Example 63, 6-(1-cyclopropyl-1H-pyrazol-4-yl)-3-(6-fluoropyridin-3-yl)-2-(4-(4-methyl-4H-1,2,4-triazol-3-yl)piperidin-1-yl)benzonitrile]",< 0.1,< 0.1,< 0.1
"Cn1cnnc1C1CCN(c2c(C#N)cccc2-c2cncc(B(O)O)c2)CC1 [Example 117, (5-(3-cyano-2-(4-(4-methyl-4H-1,2,4-triazol-3-yl)piperidin-1-yl)phenyl)pyridin-3-yl)boronic acid]",< 0.1,< 0.1,< 0.1
"CNCCOc1ccc(-c2ccc(F)nc2)c(N2CCC(c3nncn3C)CC2)c1C#N [Example 82, 3-(6-fluoropyridin-3-yl)-2-(4-(4-methyl-4H-1,2,4-triazol-3-yl)piperidin-1-yl)-6-(2-(methylamino)ethoxy)benzonitrile]",< 0.1,1 to 10,< 0.1
"Cn1ccc(-c2ccc(-c3ccc(F)nc3)c(N3CCN(c4nncn4C)CC3)c2C#N)n1 [Example 122, 3-(6-fluoropyridin-3-yl)-6-(1-methyl-1H-pyrazol-3-yl)-2-(4-(4-methyl-4H-1,2,4-triazol-3-yl)piperazin-1-yl)benzonitrile]",< 0.1,< 0.1,< 0.1
"COc1cc(F)c(-c2ccc(F)nc2)c(N2CCC(c3nncn3C)CC2)c1C#N [Example 107, 4-fluoro-3-(6-fluoropyridin-3-yl)-6-methoxy-2-(4-(4-methyl-4H-1,2,4-triazol-3-yl)piperidin-1-yl)benzonitrile]",< 0.1,< 0.1,< 0.1
"Cn1cnnc1C1CCN(c2c(-c3ccc(F)nc3)ccc(OC3CC3)c2C#N)CC1 [Example 76, 6-cyclopropoxy-3-(6-fluoropyridin-3-yl)-2-(4-(4-methyl-4H-1,2,4-triazol-3-yl)piperidin-1-yl)benzonitrile]",< 0.1,< 0.1,< 0.1
